{"source": "paper PMC7072484", "about": "(Biomolecules, 2020)", "key": {"CYP2B6": {"biological_target": "T1, CYP2B6 (Homo sapiens, UniProt P20813)", "T1 construct": "native enzyme in pooled human liver microsomes (200 donors, male and female; Sekisui XenoTech), isoform-selective P450-Glo CYP2B6 kit", "T1 sequence (P20813 1-491)": "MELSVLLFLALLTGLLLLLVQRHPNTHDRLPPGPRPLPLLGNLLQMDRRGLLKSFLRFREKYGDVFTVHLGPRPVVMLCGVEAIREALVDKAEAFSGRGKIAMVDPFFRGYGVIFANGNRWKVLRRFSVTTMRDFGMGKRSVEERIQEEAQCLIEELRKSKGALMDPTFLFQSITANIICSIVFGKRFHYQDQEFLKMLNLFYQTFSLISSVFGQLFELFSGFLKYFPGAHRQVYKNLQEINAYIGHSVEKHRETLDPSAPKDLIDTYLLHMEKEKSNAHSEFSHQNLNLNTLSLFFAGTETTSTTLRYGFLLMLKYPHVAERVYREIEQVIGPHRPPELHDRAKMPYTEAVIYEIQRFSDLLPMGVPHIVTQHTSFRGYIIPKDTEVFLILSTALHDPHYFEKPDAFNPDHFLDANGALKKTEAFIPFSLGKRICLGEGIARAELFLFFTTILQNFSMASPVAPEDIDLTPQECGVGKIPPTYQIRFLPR", "assay": "P450-Glo luminescence inhibition assay", "assay_type": "biochemical"}, "CYP3A4": {"biological_target": "T2, CYP3A4 (Homo sapiens, UniProt P08684)", "T2 construct": "native enzyme in pooled human liver microsomes (200 donors, male and female; Sekisui XenoTech), isoform-selective P450-Glo CYP3A4 kit", "T2 sequence (P08684 2-503)": "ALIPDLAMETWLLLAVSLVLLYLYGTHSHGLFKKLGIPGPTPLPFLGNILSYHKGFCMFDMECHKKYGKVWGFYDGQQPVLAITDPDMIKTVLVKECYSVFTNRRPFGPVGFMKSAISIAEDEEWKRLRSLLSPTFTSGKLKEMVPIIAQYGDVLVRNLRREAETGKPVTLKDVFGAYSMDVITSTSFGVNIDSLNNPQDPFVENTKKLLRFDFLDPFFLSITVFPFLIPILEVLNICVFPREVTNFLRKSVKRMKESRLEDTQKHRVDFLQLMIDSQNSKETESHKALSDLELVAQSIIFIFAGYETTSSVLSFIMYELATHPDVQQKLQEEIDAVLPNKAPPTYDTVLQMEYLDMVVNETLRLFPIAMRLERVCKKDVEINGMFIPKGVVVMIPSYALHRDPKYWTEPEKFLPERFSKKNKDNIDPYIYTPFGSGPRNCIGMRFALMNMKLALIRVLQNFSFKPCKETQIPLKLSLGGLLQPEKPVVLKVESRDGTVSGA", "assay": "P450-Glo luminescence inhibition assay", "assay_type": "biochemical"}}, "note": "Where two headings read alike, the source gives them in different places."}
{"compound": "C=C1C(=O)O[C@@]23[C@H]1CC[C@@H](C)[C@@H]2CC[C@@]1(C)O[C@@H]31", "note": "[Arteannuin B]", "values": [{"measurement": "IC50", "setting": "CYP2B6", "result": 9.36, "unit": "µM"}, {"measurement": "IC50", "setting": "CYP3A4; read-out: CYP3A4 IC50", "result": 12.3, "unit": "µM"}]}
{"compound": "C=C(C(=O)O)[C@@H]1CC[C@@H](C)[C@@H]2CCC(C)=C[C@@H]21", "note": "[Artemisinic Acid]", "values": [{"measurement": "IC50", "setting": "CYP2B6", "result": 123, "unit": "µM"}, {"measurement": "IC50", "setting": "CYP3A4; read-out: CYP3A4 IC50", "result": 240, "unit": "µM"}]}
{"compound": "CC1(C)[C@@H]2CC[C@@]1(C)C(=O)C2", "note": "[Camphor (+)]", "values": [{"measurement": "IC50", "setting": "CYP2B6", "result": 119, "unit": "µM"}, {"measurement": "IC50", "setting": "CYP3A4; read-out: CYP3A4 IC50", "result": "> 600", "unit": "µM"}]}
{"compound": "CC1(C)[C@H]2CC[C@]1(C)C(=O)C2", "note": "[Camphor (-)]", "values": [{"measurement": "IC50", "setting": "CYP2B6", "result": 142, "unit": "µM"}, {"measurement": "IC50", "setting": "CYP3A4; read-out: CYP3A4 IC50", "result": "> 600", "unit": "µM"}]}
{"compound": "O=C(/C=C/c1ccc(O)c(O)c1)O[C@@H]1C[C@](O)(C(=O)O)C[C@@H](O)[C@H]1O", "note": "[Chlorogenic Acid]", "values": [{"measurement": "IC50", "setting": "CYP2B6", "result": "> 600", "unit": "µM"}, {"measurement": "IC50", "setting": "CYP3A4; read-out: CYP2B6 IC50", "result": "> 600", "unit": "µM"}]}
{"compound": "COc1cc(-c2oc3cc(OC)c(OC)c(O)c3c(=O)c2OC)ccc1O", "note": "[Chrysosplenetin]", "values": [{"measurement": "IC50", "setting": "CYP2B6", "result": 74.7, "unit": "µM"}, {"measurement": "IC50", "setting": "CYP3A4; read-out: CYP3A4 IC50", "result": 21.7, "unit": "µM"}]}
{"compound": "COc1cc2oc(-c3ccc(O)c(O)c3)c(OC)c(=O)c2c(O)c1OC", "note": "[Chrysosplenol-D]", "values": [{"measurement": "IC50", "setting": "CYP2B6", "result": 52.1, "unit": "µM"}, {"measurement": "IC50", "setting": "CYP3A4; read-out: CYP3A4 IC50", "result": 23, "unit": "µM"}]}
{"compound": "C[C@@H]1CC[C@H]2[C@@H](C)C(=O)O[C@@H]3O[C@@]4(C)CC[C@@H]1[C@]32O4", "note": "[Deoxyartemisinin]", "values": [{"measurement": "IC50", "setting": "CYP2B6", "result": 111, "unit": "µM"}, {"measurement": "IC50", "setting": "CYP3A4; read-out: CYP3A4 IC50", "result": "> 600", "unit": "µM"}]}
{"compound": "O=c1c(O)c(-c2ccc(O)cc2)oc2cc(O)cc(O)c12", "note": "[Kaempferol]", "values": [{"measurement": "IC50", "setting": "CYP2B6", "result": "> 600", "unit": "µM"}, {"measurement": "IC50", "setting": "CYP3A4; read-out: CYP3A4 IC50", "result": 33.8, "unit": "µM"}]}
{"compound": "O=c1c(O)c(-c2ccc(O)c(O)c2)oc2cc(O)cc(O)c12", "note": "[Quercetin]", "values": [{"measurement": "IC50", "setting": "CYP2B6", "result": 19.9, "unit": "µM"}, {"measurement": "IC50", "setting": "CYP3A4; read-out: CYP3A4 IC50", "result": 4.59, "unit": "µM"}]}
{"compound": "COc1cc2ccc(=O)oc2cc1O", "note": "[Scopoletin]", "values": [{"measurement": "IC50", "setting": "CYP2B6", "result": "> 600", "unit": "µM"}]}
